# From patent US9802899B2, “Heterocyclic compounds as pesticides” (BAYER CROPSCIENCE AG, priority 2012, dated 2017)
# Assays:
# [1] = Determination of the log P values by HPLC (formic acid method); assay type: physicochemical; settings: reversed-phase column (C 18), acidic range (pH 3.4), 55° C.; for chromatographic logP: reversed-phase HPLC column (C 18)
# Method: 1) Description of Method for Determination of the Log P Values (Formic Acid Method)
# Eluents for determination in the acidic range (pH 3.4):
# Eluent A: acetonitrile+1 ml of formic acid/liter. Eluent B: water+0.9 ml of formic acid/liter.
# The lambda max values were determined in the maxima of the chromatographic signals using the UV spectra from 200 nm to 400 nm.
# [2] = tested on: Phaedon cochleariae; experiment: Phaedon cochleariae spray test (PHAECO); assay type: in vivo; settings: foliar, 168 h, application rate 500 g/ha, larvae on Chinese cabbage leaf discs, after 7 days, read-out: efficacy
# Method: Phaedon cochleariae Spray Test (PHAECO)
# (§1) Solvents: 78.0 parts by weight of acetone • • 1.5 parts by weight of dimethylformamide
# (§2) Emulsifier: 0.5 part by weight of alkylaryl polyglycol ether
# (§3) To produce a suitable preparation of active compound, 1 part by weight of active compound is mixed with the stated amounts of solvents and emulsifier, and the concentrate is diluted with emulsifier-containing water to the desired concentration.
# After 7 days, the efficacy in % is determined. 100% means that all of the beetle larvae have been killed; 0% means that none of the beetle larvae have been killed.
# [3] = tested on: Spodoptera frugiperda; experiment: Spodoptera frugiperda spray test (SPODFR); assay type: in vivo; settings: caterpillars on maize leaf discs, after 7 days
# Method: Spodoptera frugiperda Spray Test (SPODFR)
# as §1, §2, §3
# Leaf discs of maize (Zea mays) are sprayed with an active compound formulation of the desired concentration and, after drying, populated with caterpillars of the armyworm (Spodoptera frugiperda).
# After 7 days, the efficacy in % is determined. 100% means that all of the caterpillars have been killed; 0% means that none of the caterpillars have been killed.
# [4] = tested on: Boophilus microplus; experiment: Boophilus microplus test (BOOPMI injection); assay type: in vivo; settings: application rate 20 μg/animal; injection into the abdomen; after 7 days by laying of fertile eggs
# Method: Boophilus microplus Test (BOOPMI Injection)
# (§4) Solvent: dimethyl sulphoxide
# To produce a suitable preparation of active compound, 10 mg of active compound are mixed with 0.5 ml of solvent, and the concentrate is diluted with solvent to the desired concentration.
# The active compound solution is injected into the abdomen (Boophilus microplus), and the animals are transferred into dishes and stored in a climate-controlled room.
# The activity is assessed after 7 days by laying of fertile eggs. Eggs whose fertility is not visible from the outside are stored in a climate-controlled cabinet until the larvae hatch after about 42 days. An efficacy of 100% means that none of the ticks has laid any fertile eggs; 0% means that all eggs are fertile.
# [5] = tested on: Boophilus microplus; experiment: Boophilus microplus test (DIP); assay type: in vivo; settings: application rate 100 ppm, after 7 days by laying of fertile eggs, 100% = no fertile eggs
# Method: Boophilus microplus Test (DIP)
# Test animals: adult engorged Boophilus microplus females of the SP-resistant Parkhurst strain
# as §4
# 10 mg of active compound are dissolved in 0.5 ml of dimethyl sulphoxide. For the purpose of preparing a suitable formulation, the active compound solution is diluted with water to the concentration desired in each case.
# This active compound preparation is pipetted into tubes. 8-10 ticks are transferred into a further tube with holes. The tube is immersed into the active compound formulation, and all ticks are completely wetted. After the liquid has run out, the ticks are transferred onto filter discs in plastic dishes and stored in a climate-controlled room.
# The activity is assessed after 7 days by laying of fertile eggs. Eggs whose fertility is not visible from the outside are stored in a climate-controlled cabinet until the larvae hatch. An efficacy of 100% means that none of the ticks has laid any fertile eggs.
# [6] = tested on: Ctenocephalides felis; experiment: Ctenocephalides felis oral test (CTECFE); assay type: in vivo; settings: application rate 100 ppm in citrated cattle blood; adult fleas; after 2 days
# Method: Ctenocephalides felis—Oral Test (CTECFE)
# Solvent: 1 part by weight of dimethyl sulphoxide
# To produce a suitable preparation of active compound, 10 mg of active compound are mixed with 0.5 ml of dimethyl sulphoxide. A portion of the concentrate is diluted with citrated cattle blood, and the desired concentration is prepared.
# About 20 unfed adult fleas (Ctenocephalides felis) are placed into a chamber which is closed at the top and bottom with gauze. A metal cylinder whose bottom end is closed with a parafilm is placed onto the chamber. The cylinder contains the blood/active compound preparation, which can be imbibed by the fleas through the Parafilm membrane.
# After 2 days, the kill in % is determined 100% means that all fleas have been killed; 0% means that none of the fleas have been killed.
# [7] = tested on: Musca domestica; experiment: Musca domestica test (MUSCDO); assay type: in vivo; settings: adult flies, after 2 days
# Method: Musca domestica Test (MUSCDO)
# as §4
# To produce a suitable preparation of active compound, 10 mg of active compound are mixed with 0.5 ml of dimethyl sulphoxide, and the concentrate is diluted with water to the desired concentration.
# Vessels containing a sponge treated with the active compound formulation of the desired concentration are populated with adult Musca domestica.
# After 2 days, the kill in % is determined. 100% means that all of the flies have been killed; 0% means that none of the flies have been killed.
# [8] = tested on: Cooperia curticei; experiment: Cooperia curticei test (COOPCU); assay type: in vivo
# Method: Cooperia curticei Test (COOPCU)
# as §4
# (§5) To produce a suitable preparation of active compound, 10 mg of active compound are mixed with 0.5 ml of dimethyl sulphoxide, and the concentrate is diluted with Ringer solution to the desired concentration.
# Vessels containing the active compound preparation of the desired concentration are populated with about 40 nematode larvae (Cooperia curticei).
# (§6) After 5 days, the kill in % is determined 100% means that all of the larvae have been killed; 0% means that none of the larvae have been killed.
# [9] = tested on: Meloidogyne incognita; experiment: Meloidogyne incognita test (MELGIN); assay type: in vivo; settings: Meloidogyne incognita, 336 h; application rate 20 ppm; lettuce in sand; after 14 days; read-out: nematicidal effect (formation of galls)
# Method: Meloidogyne incognita Test (MELGIN)
# Solvent: 125.0 parts by weight of acetone
# To prepare a suitable active compound preparation, 1 part by weight of active compound is mixed with the stated amount of solvent and the concentrate is diluted with water to the desired concentration.
# Vessels are filled with sand, active compound solution, an egg/larvae suspension of the root-knot nematode (Meloidogyne incognita) and lettuce seeds. The lettuce seeds germinate and the plants develop. On the roots, galls are formed.
# After 14 days, the nematicidal effect in % is determined by the formation of galls. 100% means that no galls have been found; 0% means that the number of galls on the treated plants corresponds to the untreated control.
# [10] = tested on: Haemonchus contortus; experiment: Haemonchus contortus test (HAEMCO); assay type: in vivo; settings: application rate 4 ppm; larvae; after 5 days
# Method: Haemonchus contortus Test (HAEMCO)
# as §4, §5
# Vessels containing the active compound preparation of the desired concentration are populated with about 40 larvae of the red stomach worm (Haemonchus contortus).
# as §6
# [11] = Determination of the log P values by HPLC (formic acid method); assay type: physicochemical; settings: printed as (neutral)
structure (smiles),measurement,setting,value
"O=C(Nc1nn(-c2ccccc2Cl)cc1I)c1ccccc1C(F)(F)F [Compound I-1-17, N-[4-Iodo-1-(2-chlorophenyl)-1H-pyrazol-3-yl]-2-(trifluoromethyl)benzamide]",chromatographic logP,[1],3.16
same,pest or weed control at 500 g/ha,[2],100%
same,efficacy,[3]; application rate 500 g/ha,83%
O=C(Nc1nn(-c2ccccc2Cl)cc1Br)c1ccccc1Cl [Compound I-1-29],log P,[1],2.99
same,efficacy,[3]; application rate 500 g/ha,83%
O=C(Nc1nn(-c2ccccc2Cl)cc1Cl)c1ccccc1I [Compound I-1-34],log P,[1],3.10
same,efficacy,[3]; application rate 500 g/ha,83%
Cc1cc(NC(=O)c2ccccc2I)nn1-c1ccccc1Cl [Compound I-1-35],log P,[1],2.53
same,efficacy,[3]; application rate 500 g/ha,100%
O=C(Nc1ccn(-c2ccccc2Br)n1)c1ncccc1Cl [Compound I-1-55],log P,[1],2.76
same,efficacy,[4],80%
"O=C(Nc1ccn(-c2c(F)cccc2F)n1)c1ncccc1C(F)(F)F [Compound I-1-91, N-[1-(2,6-Difluorophenyl)-1H-pyrazol-3-yl]-3-(trifluoromethyl)pyridine-2-carboxamide]",chromatographic logP,[1],2.22
same,efficacy,[5],90%
same,efficacy (kill),[6],80%
same,efficacy (kill),[7]; application rate 20 ppm,85%
same,pest or weed control at 100 ppm,"[8]; Cooperia curticei, 120 h, application rate 100 ppm, nematode larvae, after 5 days, read-out: efficacy (kill)",90%
same,pest or weed control at 20 ppm,[9],100%
same,pest or weed control at 500 g/ha,[2],100%
O=C(Nc1ccn(-c2c(F)cccc2F)n1)c1nccnc1C(F)(F)F [Compound I-1-99],log P,[1],2.45
same,efficacy,[5],100%
same,efficacy (kill),[6],80%
same,efficacy (kill),[7]; application rate 20 ppm,90%
O=C(Nc1ccn(-c2cc(Cl)ccc2Cl)n1)c1ccccc1Cl [Compound I-1-118],log P,[1],3.36
same,efficacy,[3]; application rate 100 g/ha,83%
O=C(Nc1ccn(-c2ncccc2F)n1)c1ccccc1C(F)(F)F [Compound I-1-128],log P,[1],2.24
same,efficacy (kill),[6],85%
O=C(Nc1ccn(-c2ncccc2F)n1)c1ccccc1I [Compound I-1-131],log P,[1],2.22
same,efficacy (kill),[6],90%
O=C(Nc1ccn(-c2ncccc2Cl)n1)c1ccccc1Cl [Compound I-1-136],log P,[1],2.21
same,efficacy,[3]; application rate 500 g/ha,100%
O=C(Nc1ccn(-c2cc(F)ccc2F)n1)c1sccc1I [Compound I-1-221],log P,[1],3.57
same,efficacy (kill),"[8]; application rate 4 ppm, nematode larvae, after 5 days",90%
same,efficacy (kill),[10],90%
N#CCN(C(=O)c1ccccc1C(F)(F)F)c1ccn(-c2c(F)cccc2F)n1 [Compound I-1-259],log P,[1],2.90
same,efficacy,[3]; application rate 500 g/ha,100%
O=C(Nc1ccn(-c2ccccc2Br)n1)c1c(F)cccc1C(F)(F)F [Compound I-1-335],log P (neutral),[11],3.02
O=C(Nc1ccn(-c2cncc(F)n2)n1)c1c(F)cccc1F [Compound I-1-403],log P,[1],2.32
same,efficacy,[3]; application rate 500 g/ha,100%
O=C(Nc1ccn(-c2ncccc2Cl)n1)c1cccnc1C(F)(F)F [Compound I-1-562],log P,[1],1.98
same,efficacy (kill),[7]; application rate 100 ppm,90%
"O=C(Nc1cnn(-c2ccccc2Cl)n1)c1ccccc1C(F)(F)F [Compound I-2-1, N-[2-(2-Chlorophenyl)-2H-1,2,3-triazol-4-yl]-2-(trifluoromethyl)benzamide]",chromatographic logP,[1],3.02
same,efficacy,[5],100%
same,efficacy (kill),[6],90%
same,pest or weed control at 4 ppm,"[8]; Cooperia curticei, 120 h, read-out: efficacy (kill)",100%
same,efficacy (kill),[10],80%
same,pest or weed control at 500 g/ha,[2],100%
O=C(Nc1cnn(-c2ncccc2Cl)n1)c1ccccc1C(F)(F)F [Compound I-2-10],log P,[1],2.38
same,efficacy (kill),[6],90%
O=C(Nc1cnn(-c2c(F)cccc2F)n1)c1ccccc1I [Compound I-2-41],log P,[1],2.81
same,efficacy,[3]; application rate 500 g/ha,100%
O=C(Nc1cnn(-c2ncccc2F)n1)c1c(F)cccc1C(F)(F)F [Compound I-2-49],log P,[1],2.26
same,efficacy (kill),[10],90%
O=C(Nc1cnn(-c2ncccc2F)n1)c1ccccc1I [Compound I-2-51],log P,[1],2.14
same,efficacy (kill),[10],80%
